From PubChem BioAssay AID1996
Values after ≈ are worked out from the molar mass of the structure shown.

Settings: buffer; pH 7.4; 200.0 µM

| SMILES | solubility kinetic |
| --- | --- |
| CCOc1ccc(NC(=O)COc2ccc(S(=O)(=O)N3CCOCC3)cc2)cc1 | 2.9 µg/mL (≈ 6.9 µM) |
| Cc1nc(SCC(=O)NCc2ccc3c(c2)OCO3)nc(C)c1C | > 51.8 µg/mL |
| O=C(CCc1nnc(C2CCCCC2)o1)NCc1ccc(F)c(F)c1 | > 52.4 µg/mL |
| CCOC(=O)c1c(N)sc2c1CCN(CCc1ccccc1)C2 | 31.7 µg/mL (≈ 95.9 µM) |
| COc1ccccc1CNC(=O)CN1C(=O)NC(Cc2ccccc2)(c2ccccc2)C1=O (centres undefined) | 32.9 µg/mL (≈ 74.2 µM) |
| CCOc1ccc(NC(=O)C(C)Sc2nccn2C)cc1 (centres undefined) | > 45.8 µg/mL |
| Cc1cccc(N2C(=O)CC(c3ccc(F)cc3)C3=C2COC3=O)c1 (centres undefined) | > 50.6 µg/mL |
| COc1ccccc1N1CCN(C(=O)c2cc3cc(F)ccc3[nH]2)CC1 | 0.7 µg/mL (≈ 1.98 µM) |
| COC(=O)C[n+]1cccc2ccccc21.[Cl-] | > 35.7 µg/mL |
| CCn1c(COc2ccccc2OC)nc2ccccc21 | 41.9 µg/mL (≈ 148 µM) |
| O=C(c1ccc(S(=O)(=O)N2CCCC2)cc1)N1CCCCCC1 | > 50.5 µg/mL |
| CCn1cnc2cc(NCc3ccc(Cl)cc3)ccc21 | 34 µg/mL (≈ 119 µM) |
| N#C/C(=C/c1cccc(O)c1)C(=O)NCc1ccc(Cl)cc1 | 1.3 µg/mL (≈ 4.16 µM) |
| O=[N+]([O-])c1ccc(C(O)C[n+]2ccccc2)cc1.[I-] (centres undefined) | 52.1 µg/mL |
| CC(C)(C)NC(=O)NC(=O)CSc1ncccn1 | > 40.2 µg/mL |
| CCc1ccc(NC(=S)NCc2cccnc2)cc1 | 36.9 µg/mL (≈ 136 µM) |
| Cc1noc(C)c1S(=O)(=O)Nc1cccc(C(F)(F)F)c1 | > 48 µg/mL |
| Cc1cccc(Oc2ccc(NC(=O)c3ccccc3C(=O)O)cc2)c1 | > 52.1 µg/mL |
| Cl.O=C(/C=C/c1ccco1)OCC1CCCN2CCCCC12 (centres undefined) | > 48.9 µg/mL |
| CCN(CC)S(=O)(=O)c1ccc(OC)c(NC(=O)CSCc2c(C)noc2C)c1 | > 66.2 µg/mL |

| SMILES | solubility kinetic |
| --- | --- |
| NC(=O)NOCc1cccc(Cl)c1 | > 30.1 µg/mL |
| NC(=O)CSc1nc2ccccc2c(=O)n1-c1ccccc1 | > 46.7 µg/mL |
| Cc1ccc(C(=O)N(CC(C)C)c2nc3ccccc3s2)o1 | 0.5 µg/mL (≈ 1.59 µM) |
| CC1CCCCN1S(=O)(=O)Cc1ccccc1Cl (centres undefined) | > 43.2 µg/mL |
| Cc1ccc(Cl)cc1NC(=O)C1C2CCC(O2)C1C(=O)O (centres undefined) | > 46.5 µg/mL |
| COc1ccc(OC)c2sc(Cl)nc12 | 18.4 µg/mL (≈ 80.1 µM) |
| Cc1ccc(C(=O)NCCCNC(=O)c2ccccc2F)cn1 | 44.1 µg/mL (≈ 140 µM) |
| O=C(Nc1ccccc1C(=O)NC1CC1)c1ccccc1F | 44.6 µg/mL (≈ 150 µM) |
| O=C(NCCN1CCOCC1)c1ccccc1Cl | > 40.3 µg/mL |
| COc1ccc(NC(=O)c2c(F)cccc2Cl)cc1S(=O)(=O)N1CCOCC1 | > 64.3 µg/mL |
| O=C(Nc1ccc(Cl)cc1F)c1cccc2ccccc12 | 1 µg/mL (≈ 3.34 µM) |
| COc1ccc(S(=O)(=O)NC2CCCC2)c(OC)c1 | > 42.8 µg/mL |
| CNS(=O)(=O)c1cccc(C(=O)OCC(=O)Nc2nc(OC)cc(OC)n2)c1 | 15 µg/mL (≈ 36.5 µM) |
| COC(=O)c1cc(Nc2cc(C)c3c(O)cccc3n2)cc(C(=O)OC)c1 | < 0.4 µg/mL |
| CN1CCN(C(=O)CC2(CC(=O)O)CCCC2)CC1.Cl | > 45.7 µg/mL |
| O=C(CSc1nc2ncccc2[nH]1)NC1CCCCC1 | > 43.6 µg/mL |
| CCCCSCCCNC(=O)Nc1ccc(CC)cc1 | 3.6 µg/mL (≈ 12.2 µM) |
| O=C(c1cccs1)N1CCN(c2ccc([N+](=O)[O-])cc2F)CC1 | 4.7 µg/mL (≈ 14 µM) |
| CN(c1ccc(OCC(=O)Nc2cc(Cl)ccc2C(=O)O)cc1)S(=O)(=O)c1ccc(F)cc1 | > 73.9 µg/mL |
| Cc1cccc(C(=O)OCC(=O)N2CC(=O)Nc3ccccc32)c1C | 4.2 µg/mL (≈ 12.4 µM) |

| SMILES | solubility kinetic |
| --- | --- |
| O=C(COc1ccc2cc(Br)ccc2c1)N1CCOCC1 | > 52.5 µg/mL |
| CCN(CC)C(=O)Cc1c(OC)ccc2cc(Br)ccc12 | 17.7 µg/mL (≈ 50.5 µM) |
| Cc1ccc(-c2cn(-c3ccccc3F)c(=S)[nH]2)cc1 | 1.1 µg/mL (≈ 3.87 µM) |
| C=CCNc1nc2c(c(=O)[nH]c(=O)n2C)n1CCOc1ccccc1 | 3.3 µg/mL (≈ 9.67 µM) |
| CCc1ccc(S(=O)(=O)NCC(O)COc2ccc(OC)cc2)cc1 (centres undefined) | 51.9 µg/mL (≈ 142 µM) |
| c1ccc(-c2nccc(-c3ccc4c(c3)OCO4)n2)cc1 | < 0.3 µg/mL |
| O=c1c2ccccc2nc(/C=C/c2ccccn2)n1-c1ccccc1 | 0.6 µg/mL (≈ 1.84 µM) |
| Cc1ccc(C)c(CN2CCN(c3ncccn3)CC2)c1 | 17.4 µg/mL (≈ 61.6 µM) |
| CCN(CC)CCNC(=O)c1cc2cc3ccc(OC)cc3nc2o1 | 45.9 µg/mL (≈ 134 µM) |
| CC(Sc1ncccn1)C(=O)Nc1ccc2c(c1)OCCO2 (centres undefined) | > 47.6 µg/mL |
| CN1C(=O)N(CC(=O)Nc2nccs2)C(=O)C12CCCCC2 | > 48.4 µg/mL |
| O=C(C[n+]1ccccc1)Nc1ccccc1C(F)(F)F.[Cl-] | > 47.5 µg/mL |
| Cc1ccc(C(=O)OCC(=O)N(C)c2ccccc2)c(C)c1 | > 44.6 µg/mL |
| CSCC[C@H](NC(=O)Nc1ccccc1C)C(=O)O | > 42.4 µg/mL |
| O=c1[nH]c(=S)n(C2CCCCC2)c(O)c1C=NCCN1CCOCC1 | 53 µg/mL (≈ 145 µM) |
| O=c1c2ccccc2nc2n1CCO2 | > 28.2 µg/mL |
| O=C(CSc1nnc(-c2ccccn2)o1)Nc1ccccc1 | > 46.9 µg/mL |
| N#CCCN(C(=O)COC(=O)CCc1ccccc1)c1ccccc1 | 44.8 µg/mL (≈ 133 µM) |
| CCOC(=O)c1ccc(NC(=O)NCc2cccnc2)cc1 | > 44.9 µg/mL |
